# Results as given in paper PMC10746103, “Development of a HPLC-MS/MS Method to Assess the Pharmacokinetics and Tumour Distribution of the Dimethylarginine Dimethylaminohydrolase 1 Inhibitors ZST316 and L-257 in a Xenograft Model of Triple-Negative Breast Cancer in Mice” (Molecules, 2023).
# Several values for one entry are separate records, joined by “and”; a condition that tells them apart may be missing. Equal entries are not always repeated. Entries after “also recorded” stand apart in the source; their conditions may differ.
# How the values were obtained:
# [1] = Plasma pharmacokinetics of ZST316 and L-257 after intraperitoneal ZST316 in MDA-MB-231 xenograft mice (HPLC-MS/MS); assay type: in vivo, SCID mice
# Protocol: (§1) Six-week-old female severe combined immunodeficiency disease (SCID) mice (n = 24; Charles River Laboratories Italia S.r.L., Calco, Lecco, Italy), were housed under rigorous standards and handled under pathogen-free conditions in the Animal Care Facilities of the Mario Negri Institute for Pharmacological Research (Milan, Italy).
# (§2) Two ×10^6 (in 10 μL) MDA-MB-231 TNBC cells were transplanted into the mammary fat pad. Tumour growth was regularly monitored with a calliper and treatment with ZST316 was given when the tumour volume reached 400–500 mm^3. Mice received either a single dose (acute treatment) or a daily dose of ZST316 30 mg/Kg intraperitoneally for five days (chronic treatment).
# (§3) Plasma and tumour tissue (n = 3 mice/each time point) were sampled at 1, 8 and 24 h after treatment (on day 5 for the chronic treatment). To collect plasma, mice were anesthetized by isoflurane, the blood was drained from the retro-orbital plexus into heparinised tubes and centrifuged for 10 min at 4000× g at 4 °C. Tumours were collected and immediately frozen. Plasma and tumour samples were stored at −20 °C until analysis.
# To assay ZST316 and L-257, 10 μL of IS (ZST152 WS: 500 ng/mL) were added to 100 μL of study plasma samples, standards, and QCs in a polypropylene tube. The samples were then added with 10 μL of NH4COOH 50 mM, mixed and added with 400 μL CH3OH:0.1% HCOOH, vortex mixed again and centrifuged at 13,200 rpm for 10 min at 4 °C. The supernatant was transferred to a 1.5 mL Eppendorf tube, dried under nitrogen flow and reconstituted with 100 μL of mobile phase (MP) A:B (1:1, v/v). Finally, the samples were centrifuged at 13,200 rpm for 10 min at 4 °C and the supernatant transferred into vials for HPLC-MS/MS analysis.
# (§4) Reversed-phase chromatography was performed under gradient conditions with separation on a HILIC column, C18, 3 μm, 100 A, 2.1 × 150 mm, Waters (Milford, MA, USA), coupled with a 3 μm, 3.9 × 5.0 mm guard column of the same material at the flow rate of 0.2 mL/min. Gradient features were: 10% mobile phase (MP) A (NH4HCO2 10 mM, 10% CH3CN, 0.1% HCOOH) and 90% MP B (CH3CN, 0.1% HCOOH) as initial constant condition; then to 90% MP A in 6 min and constant condition for 1.5 min. Return to start condition in 0.5 min and conditioning for 5.5 min. Total run time: 13.5 min. Analyte detection and quantification were performed using tandem mass spectrometry (MS/MS) operating in positive ionization mode as previously reported for ZST316 and ZST152 [31].
# [2] = Tumour distribution of ZST316 and L-257 after intraperitoneal ZST316 in MDA-MB-231 TNBC xenograft (HPLC-MS/MS); assay type: in vivo, SCID mice; details: for time intra-tumour concentration remained above the IC50 and Ki values for DDAH1 inhibition: estimated
# Protocol: as §1, §2, §3
# Control MDA-MB-231 TNBC cell tumours were homogenized with NH4COOH 50 mM (1:4, w:v). The homogenate (90 μL) was spiked with 5 μL of ZST316 and L-257 working solutions prepared in the range of 100–10,000 ng/mL generating seven tumour calibration standards in the range 25–5000 ng/g. The calibration curve included also a blank and a zero blank standard plasma sample (processed with IS). To prepare QC samples, 90 μL of the homogenate was mixed with an appropriate amount of QC working solutions to obtain QC plasma samples at the nominal concentration of 75, 375, and 1250 ng/g.
# The procedure was similar to that described for plasma in Section 3.3.2.
# as §4
# [3] = Stability of ZST316 and L-257 in frozen plasma; assay type: in vitro ADME, mice; details: for Mean found value, Stability −20 °C / Accuracy (%), Stability −20 °C: plasma QC, one month at −20 °C; for Mean found value, Stability −20 °C: n=3; for Accuracy (%), Stability −20 °C: percent of nominal
# Protocol: The stability of ZST316 and L-257 in plasma was assessed by analysing QC samples containing both compounds after prolonged storage in the same conditions of the study samples.
# Stability was determined by analysing 3 QCs per concentration level immediately after the preparation, and 3 QCs per concentration level after one month of storage at −20 °C. The analytes were considered stable at each QC concentration when the freshly prepared samples and the stability test samples differed by no more than 15% from the nominal concentrations.
# [4] = molecular target: DDAH1; details: cited from earlier work
# [5] = acute (single dose) ZST316 30 mg/Kg i.p., 1 h
# [6] = acute ZST316 30 mg/Kg i.p., 1 h
# [7] = acute ZST316 30 mg/Kg i.p., 8 h
# [8] = acute ZST316 30 mg/Kg i.p., 8 h, n=3
# [9] = acute ZST316 30 mg/Kg i.p., 24 h
# [10] = acute ZST316 30 mg/Kg i.p., approximately estimated due to limited time points
# [11] = chronic (five-day) ZST316 30 mg/Kg i.p. daily, 1 h
# [12] = chronic (five-day) ZST316 30 mg/Kg i.p. daily, 24 h
# [13] = chronic ZST316 30 mg/Kg i.p. daily
# [14] = chronic ZST316 30 mg/Kg i.p. daily, day 5, 1 h
# [15] = chronic ZST316 30 mg/Kg i.p. daily, day 5, 8 h
# [16] = chronic ZST316 30 mg/Kg i.p. daily, day 5, 8 h, n=3
# [17] = chronic ZST316 30 mg/Kg i.p. daily, day 5, 24 h
# [18] = chronic ZST316 30 mg/Kg i.p. daily, approximately estimated due to limited time points
# [19] = range over acute and chronic treatment
smiles,measurement,setting,value
COCCNC(N)=NCCC[C@H](N)C(=O)O [L-257],accumulation in plasma and tumour during chronic treatment,"[1]; ZST316 30 mg/Kg i.p. daily for five days, day 5 vs day 1",without accumulation; also recorded: no accumulation
same,mean plasma concentration,[1]; [5],2.02 µg/mL
same,Cmax,[1]; acute ZST316 30 mg/Kg i.p.,8.7 µM
same,Cmax plasma,[1]; acute ZST316 30 mg/Kg i.p.,2020 ng/mL
same,Plasma AUC1–24 h,[1]; acute ZST316 30 mg/Kg i.p.,0.061
same,Plasma AUC1–24 h,[1]; acute ZST316 30 mg/Kg i.p. (day 1),14.1 µg·h/mL
same,"plasma concentration, individual mice",[1]; [6],2610 ng/mL and 1700 ng/mL and 1760 ng/mL and 11.24 µM and 7.32 µM and 7.58 µM
same,"plasma concentration, individual mice",[1]; [7],272 ng/mL and 382 ng/mL and 2.16 µM and 1.17 µM and 1.65 µM and 502 ng/mL
same,mean plasma concentration,[1]; [8],385 ng/mL and 1.66 μM
same,"plasma concentration, individual mice",[1]; [9],38 ng/mL and 32.5 ng/mL and 47.8 ng/mL and 0.16 µM and 0.14 µM and 0.21 µM
same,half-life plasma,[1]; [10],4.2 h
same,mean plasma concentration,[1]; [11],1.60 µg/mL
same,mean plasma concentration,[1]; [12],0.06 µg/mL
same,Cmax,[1]; [13],6.89 µM
same,Cmax plasma,[1]; [13],1600 ng/mL
same,Plasma AUC1–24 h,[1]; [13],0.044
same,Plasma AUC1–24 h,[1]; chronic ZST316 30 mg/Kg i.p. daily (day 5),10.3 µg·h/mL
same,"plasma concentration, individual mice",[1]; [14],1600 ng/mL and 1500 ng/mL and 1710 ng/mL and 6.89 µM and 6.46 µM and 7.37 µM
same,"plasma concentration, individual mice",[1]; [15],249 ng/mL and 136 ng/mL and 0.90 µM and 1.07 µM and 0.59 µM and 209 ng/mL
same,mean plasma concentration,[1]; [16],198 ng/mL and 0.85 μM
same,"plasma concentration, individual mice",[1]; [17],58.8 ng/mL and 95.2 ng/mL and 29.1 ng/mL and 0.25 µM and 0.41 µM and 0.13 µM
same,half-life plasma,[1]; [18],5.3 h
same,half-life plasma,[1]; [19],4.2 to 5.3 h
same,measured concentration in unknown study plasma sample (Figure 2),"[1]; representative chromatogram, sample taken at 1 h after acute treatment (b8)",1710 ng/mL
same,mean intra-tumour concentration,[2]; [5],3.5 µg/g
same,mean intra-tumour concentration,"[2]; acute (single dose) ZST316 30 mg/Kg i.p., 24 h",0.04 µg/g
same,Cmax tumour,[2]; acute ZST316 30 mg/Kg i.p.,3.50 μg/g and 15.08 μM
same,tumour AUC,[2]; acute ZST316 30 mg/Kg i.p.,23.9 µg·h/g
same,"tumour concentration, individual mice",[2]; [6],3590 ng/g and 2810 ng/g and 4090 ng/g and 15.5 µM and 12.1 µM and 17.6 µM
same,"tumour concentration, individual mice",[2]; [7],225 ng/g and 1060 ng/g and 2.8 µM and 0.97 µM and 4.57 µM and 651 ng/g
same,mean tumour concentration,[2]; [8],645 ng/g and 2.78 μM
same,"tumour concentration, individual mice",[2]; [9],30.7 ng/g and 33.1 ng/g and 56.1 ng/g and 0.13 µM and 0.14 µM and 0.24 µM
same,half-life tumour,[2]; [10],3.6 h
same,time intra-tumour concentration remained above the IC50 and Ki values for DDAH1 inhibition,[2]; after acute ZST316 treatment,4 h
same,time intra-tumour concentration remained above the IC50 and Ki values for DDAH1 inhibition,[2]; after chronic ZST316 treatment,3.5 h
same,mean intra-tumour concentration,[2]; [11],3.24 µg/g
same,mean intra-tumour concentration,[2]; [12],0.10 µg/g
same,Cmax tumour,[2]; [13],3.24 μg/g and 13.96 μM
same,tumour AUC,[2]; [13],20.3 µg·h/g
same,"tumour concentration, individual mice",[2]; [14],3550 ng/g and 2810 ng/g and 3350 ng/g and 15.29 µM and 12.10 µM and 14.43 µM
same,"tumour concentration, individual mice",[2]; [15],413 ng/g and 403 ng/g and 326 ng/g and 1.78 µM and 1.74 µM and 1.40 µM
same,mean tumour concentration,[2]; [16],381 ng/g and 1.64 μM
same,mean tumour concentration,[2]; [17],97 ng/g
same,"tumour concentration, individual mice",[2]; [17],35.5 ng/g and 159 ng/g and < LOQ and 0.15 µM and 0.68 µM and 0.05 µM
same,mean tumour concentration,"[2]; chronic ZST316 30 mg/Kg i.p. daily, day 5, 24 h, n=3",0.30 µM
same,half-life tumour,[2]; [18],4.9 h
same,half-life tumour,[2]; [19],3.6 to 4.9 h
same,measured concentration in unknown study tumour sample (Figure 3),"[2]; representative chromatogram, sample taken at 24 h after acute treatment (b8)",30.7 ng/g
same,stability in frozen plasma,[3]; at least one month at −20 °C,stable
same,"Mean found value, Stability −20 °C",[3]; actual value 15.00 ng/mL,15.8 ng/mL
same,"Accuracy (%), Stability −20 °C",[3]; actual value 15.00 ng/mL,105.6%
same,"Mean found value, Stability −20 °C",[3]; actual value 75.00 ng/mL,75.7 ng/mL
same,"Accuracy (%), Stability −20 °C",[3]; actual value 75.00 ng/mL,101.0%
same,"Mean found value, Stability −20 °C",[3]; actual value 250.00 ng/mL,259.5 ng/mL
same,"Accuracy (%), Stability −20 °C",[3]; actual value 250.00 ng/mL,103.8%
same,Ki,[4]; dotted line in figures,7 µM
same,Ki expressed as concentration,[4]; equivalent of 7 μM,1.625 µg/mL
